Assay results from patent publication US20240116985A1, “STAPLED PEPTIDES AND METHODS THEREOF” (priority 2020, published 2024).
In brackets after ≈: the same amount, converted by molar mass. Where two headings read alike, the source gives them in different places.

Columns and labels:
[1] = target: T1, full-length beta-Catenin (Uniprot ID P35222) (Homo sapiens, UniProt P35222); experiment: Fluorescence polarization IC50 (beta-catenin / 5FAM-TCF4 10-53 competition); type: binding
T1 construct: 10 nM full-length beta-Catenin (Uniprot ID P35222)
T1 sequence (P35222 1-781): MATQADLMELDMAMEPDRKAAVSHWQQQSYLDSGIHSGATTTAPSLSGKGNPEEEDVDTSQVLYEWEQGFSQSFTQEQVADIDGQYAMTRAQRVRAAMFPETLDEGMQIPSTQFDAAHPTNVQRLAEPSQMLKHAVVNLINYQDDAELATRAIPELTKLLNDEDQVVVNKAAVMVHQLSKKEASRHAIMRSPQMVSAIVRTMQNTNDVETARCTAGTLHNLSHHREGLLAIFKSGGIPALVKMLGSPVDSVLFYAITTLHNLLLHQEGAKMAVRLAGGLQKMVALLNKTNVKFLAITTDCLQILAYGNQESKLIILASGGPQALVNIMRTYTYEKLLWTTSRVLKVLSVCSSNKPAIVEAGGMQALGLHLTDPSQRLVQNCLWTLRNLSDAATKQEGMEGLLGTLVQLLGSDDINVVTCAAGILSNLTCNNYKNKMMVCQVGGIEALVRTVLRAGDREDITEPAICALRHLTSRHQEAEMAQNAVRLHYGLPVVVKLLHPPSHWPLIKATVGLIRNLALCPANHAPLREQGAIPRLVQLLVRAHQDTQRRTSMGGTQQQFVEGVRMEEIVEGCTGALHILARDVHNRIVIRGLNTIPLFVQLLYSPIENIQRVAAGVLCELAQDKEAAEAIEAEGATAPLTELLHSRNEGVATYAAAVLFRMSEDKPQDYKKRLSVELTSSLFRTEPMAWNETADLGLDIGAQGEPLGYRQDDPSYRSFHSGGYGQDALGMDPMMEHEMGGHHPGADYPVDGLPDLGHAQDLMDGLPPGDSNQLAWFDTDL

[2] = Solubility in PBS; type: physicochemical
Summary of the method: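 Read-out is the HPLC peak area of the supernatant from ultracentrifuged PBS solution, scaled against a 50 μM peptide DMSO injection; value reported as [(PBS area)/(DMSO area)]*50 uM.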

[3] = target: T2, beta-catenin/TCF4 engagement (Homo sapiens, UniProt P35222); experiment: Nano-BRET target engagement assay (B-cat-Halo & TCF4-Luc in HEK293 cells); type: cell-based
T2 construct: expressed in transfected cells; host or cells: HEK293
T2 sequence (P35222 1-781): T1 sequence (P35222 1-781)

[4] = fluorescence polarization, read-out: beta-Catenin FP IC50
[5] = absolute IC50, read-out: NanoBRET Abs IC50

IC50 [1, 4] | Solubility ([2]; Solubility (uM)) | IC50 [3, 5] | Solubility [2] | IC50 ([1]; read-out: beta-Catenin FP IC50) | SMILES | IC50 ([1]; beta-Catenin FP IC50, fluorescence polarization) | IC50 ([3]; NanoBRET Abs IC50, absolute IC50)
25 nM | 35 µM (≈ 67.6 µg/mL) | 4.3 µM |  |  | CC(=O)N1CCC[C@]12CC=CCCCC1(CCCC=CCCCOC(=O)N3CC[C@@](C(=O)N[C@@H](Cc4ccsc4)C(=O)N[C@@H](Cc4csc5ccccc45)C(=O)N[C@@H](CCC(N)=O)C(N)=O)(C3)NC(=O)[C@H](CC(C)C)NC(=O)[C@H](Cc3ccccc3)NC(=O)[C@H](C)NC(=O)C(C)(C)NC(=O)[C@H](CC(=O)O)NC(=O)[C@H](CC(=O)O)NC1=O)NC(=O)[C@H](CC(C)(C)C)NC(=O)[C@H](CC(=O)O)NC2=O (stereo partly drawn) [I-1177, Ac-PL3-Asp-Npg-B5-Asp-Asp-Aib-Ala-Phe-Leu-PyrS2-3Thi-BztA-Gln-NH2] |  | 
33 nM | 18 µM (≈ 34.9 µg/mL) | > 20 µM |  |  | CC(=O)N1CCC[C@]12CC=CCCCC1(CCCC=CCCCOC(=O)N3CC[C@@](C(=O)N[C@@H](Cc4ccccc4Cl)C(=O)N[C@@H](Cc4csc5ccccc45)C(=O)N[C@@H](C(N)=O)[C@H](C)O)(C3)NC(=O)[C@H](CC(C)C)NC(=O)[C@H](Cc3ccccc3)NC(=O)[C@H](C)NC(=O)[C@H](C)NC(=O)[C@H](CC(=O)O)NC(=O)[C@H](CC(=O)O)NC1=O)NC(=O)[C@H](Cc1ccccc1)NC(=O)[C@H](CC(=O)O)NC2=O (stereo partly drawn) [I-1146, Ac-PL3-Asp-Phe-B5-Asp-Asp-Ala-Ala-Phe-Leu-PyrS2-2C1F-BztA-dThr-NH2] |  | 
24 nM |  | 27.3 µM | 10 µM (≈ 19.5 µg/mL) |  | CC(=O)N1CCC[C@]12CC=CCCCC1(CCCC=CCCCOC(=O)N3CC[C@@](C(=O)N[C@@H](Cc4ccccc4Cl)C(=O)N[C@@H](Cc4csc5ccccc45)C(=O)N[C@@H](CCC(N)=O)C(N)=O)(C3)NC(=O)[C@H]([C@@H](C)O)NC(=O)[C@H](Cc3ccccc3)NC(=O)[C@H](C)NC(=O)[C@H](C)NC(=O)[C@H]([C@@H](C)O)NC(=O)[C@H](CC(=O)O)NC1=O)NC(=O)[C@H](CC1CCCCC1)NC(=O)[C@H](CC(=O)O)NC2=O (stereo partly drawn) [I-1175, Ac-PL3-Asp-Cha-B5-Asp-Thr-Ala-Ala-Phe-Thr-PyrS2-2C1F-BztA-Gln-NH2] |  | 
128 nM | 46 µM (≈ 92.1 µg/mL) | 23.6 µM |  |  | CC(=O)N1CCC[C@]12CC=CCCCC1(CCCC=CCCCOC(=O)N3CC[C@@](C(=O)N[C@@H](Cc4c(F)c(F)c(F)c(F)c4F)C(=O)N[C@@H](Cc4csc5ccccc45)C(=O)N[C@@H](CCC(N)=O)C(N)=O)(C3)NC(=O)[C@H](CC(N)=O)NC(=O)[C@H](Cc3ccccc3)NC(=O)[C@H](C)NC(=O)[C@H](C)NC(=O)[C@H](CC(=O)O)NC(=O)[C@H](CC(=O)O)NC1=O)NC(=O)[C@H](CC(C)(C)C)NC(=O)[C@H](CC(=O)O)NC2=O (stereo partly drawn) [I-1186, Ac-PL3-Asp-Npg-B5-Asp-Asp-Ala-Ala-Phe-Asn-PyrS2-Pff-BztA-Gln-NH2] |  | 
11 nM | 48 µM (≈ 95.4 µg/mL) | 6.8 µM |  |  | CC(=O)N1CCC[C@]12CC=CCCCC1(CCCC=CCCCOC(=O)N3CC[C@@](C(=O)N[C@@H](Cc4ccccc4C(N)=O)C(=O)N[C@@H](Cc4csc5ccccc45)C(=O)N[C@@H](CCC(N)=O)C(N)=O)(C3)NC(=O)[C@H](Cc3ccccc3)NC(=O)[C@H](Cc3ccccc3)NC(=O)[C@H](C)NC(=O)[C@H](C)NC(=O)[C@H](CC(=O)O)NC(=O)[C@H](CC(=O)O)NC1=O)NC(=O)[C@H](CC(C)(C)C)NC(=O)[C@H](CC(=O)O)NC2=O (stereo partly drawn) [I-1316, Ac-PL3-Asp-Npg-B5-Asp-Asp-Ala-Ala-Phe-Phe-PyrS2-2cbmF-BztA-Gln-NH2] |  | 
32 nM |  | > 20 µM | 50 µM (≈ 98.9 µg/mL) |  | COCCOCCC(=O)N1CCC[C@]12CC=CCCCC1(CCCC=CCCCCCC[C@@](C)(C(=O)N[C@@H](Cc3ccccc3Cl)C(=O)N[C@@H](Cc3csc4ccccc34)C(=O)N[C@@H](CCC(N)=O)C(N)=O)NC(=O)[C@H]([C@@H](C)O)NC(=O)[C@H](Cc3ccccc3)NC(=O)[C@H](C)NC(=O)[C@H](C)NC(=O)[C@H](CC(=O)O)NC(=O)[C@H](CC(=O)O)NC1=O)NC(=O)[C@H](CC(C)(C)C)NC(=O)[C@H](CC(=O)O)NC2=O (stereo partly drawn) [I-1255, mPEG2-PL3-Asp-Npg-B5-Asp-Asp-Ala-Ala-Phe-Thr-S8-2C1F-BztA-Gln-NH2] |  | 
181 nM |  | 36.9 µM | 10 µM (≈ 18.9 µg/mL) |  | CC(=O)N1CCC[C@]12CC=CCCCC1(CCCC=CCCCOC(=O)N3CC[C@@](C(=O)N[C@@H](Cc4ccccc4)C(=O)N[C@@H](Cc4csc5ccccc45)C(=O)N[C@@H](CO)C(N)=O)(C3)NC(=O)[C@H]([C@@H](C)O)NC(=O)[C@H](Cc3ccc4ccccc4c3)NC(=O)[C@H](C)NC(=O)[C@H](C)NC(=O)[C@H]([C@@H](C)O)NC(=O)[C@H](CC(=O)O)NC1=O)NC(=O)[C@H](CC(C)(C)C)NC(=O)[C@H](CC(=O)O)NC2=O (stereo partly drawn) [I-1267, Ac-PL3-Asp-Npg-B5-Asp-Thr-Ala-Ala-2NapA-Thr-PyrS2-Phe-BztA-Ser-NH2] |  | 
 | 39 µM (≈ 79.8 µg/mL) | 18.8 µM |  | 7 nM | CC(=O)N1CCC[C@]12CC=CCCCC1(CCCC=CCCCOC(=O)N3CC[C@@](C(=O)N[C@@H](Cc4ccccc4Cl)C(=O)N[C@@H](Cc4csc5ccccc45)C(=O)N[C@@H](CCC(N)=O)C(N)=O)(C3)NC(=O)[C@H](CC(N)=O)NC(=O)[C@H](Cc3ccccc3)NC(=O)[C@H](C)NC(=O)[C@H](CCCCNC(C)C)NC(=O)[C@H](CC(=O)O)NC(=O)[C@H](CC(=O)O)NC1=O)NC(=O)[C@H](CC(C)(C)C)NC(=O)[C@H](CC(=O)O)NC2=O (stereo partly drawn) [I-1131, Ac-PL3-Asp-Npg-B5-Asp-Asp-iPrLys-Ala-Phe-Asn-PyrS2-2C1F-BztA-Gln-NH2] |  | 
38 nM |  | 20.6 µM | 10 µM (≈ 19.4 µg/mL) |  | CC(=O)N1CCC[C@]12CC=CCCCC1(CCCC=CCCCOC(=O)N3CC[C@@](C(=O)N[C@@H](Cc4ccccc4Cl)C(=O)N[C@@H](Cc4csc5ccccc45)C(=O)N[C@H](CO)[C@@H](C)O)(C3)NC(=O)[C@H](Cc3ccccc3)NC(=O)[C@H](Cc3ccccc3)NC(=O)[C@H](C)NC(=O)[C@H](C)NC(=O)[C@H](CC(=O)O)NC(=O)[C@H](CC(=O)O)NC1=O)NC(=O)[C@H](CC(C)(C)C)NC(=O)[C@H](CC(=O)O)NC2=O (stereo partly drawn) [I-1311, Ac-PL3-Asp-Npg-B5-Asp-Asp-Ala-Ala-Phe-Phe-PyrS2-2C1F-BztA-Thro1] |  | 
6 nM | 49 µM (≈ 91.4 µg/mL) | 9.7 µM |  |  | CC(=O)N1CCC[C@]12CC=CCCCC1(CCCC=CCCCOC(=O)N3CC[C@@](C(=O)N[C@@H](Cc4ccsc4)C(=O)N[C@@H](Cc4csc5ccccc45)C(=O)N[C@H](CO)[C@@H](C)O)(C3)NC(=O)[C@H](CCO)NC(=O)[C@H](Cc3ccccc3)NC(=O)[C@H](C)NC(=O)[C@H](C)NC(=O)[C@H](CC(=O)O)NC(=O)[C@H](CC(=O)O)NC1=O)NC(=O)[C@H](CC(C)(C)C)NC(=O)[C@H](CC(=O)O)NC2=O (stereo partly drawn) [I-1305, Ac-PL3-Asp-Npg-B5-Asp-Asp-Ala-Ala-Phe-Hse-PyrS2-3Thi-BztA-Thro1] |  | 
9 nM | 32 µM (≈ 64.2 µg/mL) | > 20 µM |  |  | CC(=O)N1CCC[C@]12CC=CCCCC1(CCCC=CCCCOC(=O)N3CC[C@@](C(=O)N[C@@H](Cc4ccccc4Cl)C(=O)N[C@@H](Cc4csc5ccccc45)C(=O)N[C@H](C(N)=O)[C@@H](C)O)(C3)NC(=O)[C@H]([C@@H](C)O)NC(=O)[C@H](Cc3ccccc3)NC(=O)[C@H](C)NC(=O)[C@H](CCCCNC(C)C)NC(=O)[C@H](CC(=O)O)NC(=O)[C@H](CC(=O)O)NC1=O)NC(=O)[C@H](CC(C)(C)C)NC(=O)[C@H](CC(=O)O)NC2=O (stereo partly drawn) [I-1273, Ac-PL3-Asp-Npg-B5-Asp-Asp-iPrLys-Ala-Phe-Thr-PyrS2-2C1F-BztA-Thr-NH2] |  | 
22 nM |  | 10.9 µM | 10 µM (≈ 19.8 µg/mL) |  | CC(=O)N1CCC[C@]12CC=CCCCC1(CCCC=CCCCOC(=O)N3CC[C@@](C(=O)N[C@@H](Cc4ccsc4)C(=O)N[C@@H](Cc4csc5ccccc45)C(=O)N[C@H](CO)[C@@H](C)O)(C3)NC(=O)[C@H](Cc3cccc(C(F)(F)F)c3)NC(=O)[C@H](Cc3ccccc3)NC(=O)[C@H](C)NC(=O)[C@H](C)NC(=O)[C@H](CC(=O)O)NC(=O)[C@H](CC(=O)O)NC1=O)NC(=O)[C@H](CC(C)(C)C)NC(=O)[C@H](CC(=O)O)NC2=O (stereo partly drawn) [I-1371, Ac-PL3-Asp-Npg-B5-Asp-Asp-Ala-Ala-Phe-3F3MeF-PyrS2-3Thi-BztA-Thro1] |  | 

SMILES | IC50 [1, 4] | Solubility ([2]; Solubility (uM)) | IC50 [3, 5] | Solubility [2] | IC50 ([1]; read-out: beta-Catenin FP IC50) | IC50 ([1]; beta-Catenin FP IC50, fluorescence polarization) | IC50 ([3]; NanoBRET Abs IC50, absolute IC50)
CC(=O)N1CCC[C@]12CC=CCCCC1(CCCC=CCCCOC(=O)N3CC[C@@](C(=O)N[C@@H](Cc4ccccc4)C(=O)N[C@@H](Cc4csc5ccccc45)C(=O)N[C@@H](CO)C(N)=O)(C3)NC(=O)[C@H]([C@@H](C)O)NC(=O)[C@H](Cc3ccccc3)NC(=O)[C@H](C)NC(=O)[C@H](CC(C)C)NC(=O)[C@H]([C@@H](C)O)NC(=O)[C@H](CC(=O)O)NC1=O)NC(=O)[C@H](CC(C)(C)C)NC(=O)[C@H](CC(=O)O)NC2=O (stereo partly drawn) [I-1264, Ac-PL3-Asp-Npg-B5-Asp-Thr-Leu-Ala-Phe-Thr-PyrS2-Phe-BztA-Ser-NH2] |  |  |  | 10 µM (≈ 18.9 µg/mL) |  | 157 nM | > 20 µM
